Key:
Zymoseptoria tritici = test: Leaf blotch of wheat (SEPTTR) disease control on wheat seedlings; type: in vivo; design: key to SEPTTR 1DP, HV activity at 100 ppm (% control rating) / SEPTTR 3DC, HV activity at 100 ppm (% control rating) / SEPTTR disease control, 1DP / SEPTTR disease control, 3DC / SEPTTR 1DP disease control rating, HV activity / SEPTTR 3DC disease control rating, HV activity / SEPTTR 3DC, LV activity at 125.1 g/H (% Control rating) / SEPTTR 1DP, LV activity at 125.1 g/H (% Control rating) / SEPTTR 1DP disease control rating, LV activity at 125.1 g/H / SEPTTR 3DC disease control rating, LV activity at 125.1 g/H / SEPTTR 3DC disease control rating, HV activity at 100 ppm / SEPTTR 1DP disease control rating, HV activity at 100 ppm / HV activity at 100 ppm SEPTTR 3DC (disease control rating) / HV activity at 100 ppm SEPTTR 1DP (disease control rating) / LV activity at 125.1 g/H SEPTTR 1DP (disease control rating) / LV activity at 125.1 g/H SEPTTR 3DC (disease control rating): A: > 80; B: ≤ 80; C: Not Tested; D: No Activity Observed in the Reported Assay; details: low volume application, 125.1 g/H, wheat leaf blotch; for LV activity at 125.1 g/H SEPTTR 1DP (disease control rating): 1 Day Protectant; for LV activity at 125.1 g/H SEPTTR 3DC (disease control rating): 3 Day Curative
Puccinia triticina = test: Wheat brown rust (PUCCRT) disease control on wheat seedlings; type: in vivo; design: key to PUCCRT 3DC, HV activity at 100 ppm (% control rating) / PUCCRT disease control, 3DC / PUCCRT 1DP disease control rating, HV activity / PUCCRT 3DC disease control rating, HV activity / PUCCRT 3DC, LV activity at 125.1 g/H (% Control rating) / PUCCRT 1DP, LV activity at 125.1 g/H (% Control rating) / PUCCRT 3DC disease control rating, LV activity at 125.1 g/H / PUCCRT 1DP disease control rating, LV activity at 125.1 g/H / PUCCRT 3DC disease control rating, HV activity at 100 ppm / PUCCRT 1DP disease control rating, HV activity at 100 ppm / HV activity at 100 ppm PUCCRT 3DC (disease control rating) / LV activity at 125.1 g/H PUCCRT 1DP (disease control rating) / LV activity at 125.1 g/H PUCCRT 3DC (disease control rating): A: > 80; B: ≤ 80; C: Not Tested; D: No Activity Observed in the Reported Assay; details: low volume application, 125.1 g/H, wheat brown rust; for LV activity at 125.1 g/H PUCCRT 1DP (disease control rating): 1 Day Protectant; for LV activity at 125.1 g/H PUCCRT 3DC (disease control rating): 3 Day Curative

Compound | LV activity at 125.1 g/H SEPTTR 1DP (disease control rating) (Zymoseptoria tritici) | LV activity at 125.1 g/H SEPTTR 3DC (disease control rating) (Zymoseptoria tritici) | LV activity at 125.1 g/H PUCCRT 1DP (disease control rating) (Puccinia triticina) | LV activity at 125.1 g/H PUCCRT 3DC (disease control rating) (Puccinia triticina)
COc1ccnc(C(=O)N[C@@H](C)C(=O)O[C@@H](C)[C@H](OCC2CC2)C(C)(C)C)c1OC(C)=O [Cmpd 1071] | B (≤ 80) | B (≤ 80) | A (> 80) | A (> 80)
C=CC[C@@H](OCC(=C)C)[C@H](C)OC(=O)[C@H](C)NC(=O)c1nccc(OC)c1OC(C)=O [Cmpd 1074] | D | D | D | B (≤ 80)
C=CC[C@@H](Oc1ccc(F)cc1F)[C@H](C)OC(=O)[C@H](C)NC(=O)c1nccc(OC)c1OCOC(C)=O [Cmpd 1075] | D | B (≤ 80) | A (> 80) | B (≤ 80)
C=CC[C@@H](OCC1CC1)[C@H](C)OC(=O)[C@H](C)NC(=O)c1nccc(OC)c1OCOC(C)=O [Cmpd 1076] | D | D | B (≤ 80) | B (≤ 80)
C=CC[C@@H](Oc1ccc(C(F)(F)F)cc1)[C@H](C)OC(=O)[C@H](C)NC(=O)c1nccc(OC)c1OCOC(C)=O [Cmpd 1077] | B (≤ 80) | D | A (> 80) | B (≤ 80)
C=CC[C@@H](Oc1cc(F)cc(Cl)c1)[C@H](C)OC(=O)[C@H](C)NC(=O)c1nccc(OC)c1OCOC(C)=O [Cmpd 1078] | B (≤ 80) | B (≤ 80) | A (> 80) | A (> 80)
C=CC[C@@H](Oc1cccc(Cl)c1)[C@H](C)OC(=O)[C@H](C)NC(=O)c1nccc(OC)c1OC(C)=O [Cmpd 1079] | B (≤ 80) | B (≤ 80) | A (> 80) | A (> 80)
C=CC[C@@H](Oc1cc(F)cc(Cl)c1)[C@H](C)OC(=O)[C@H](C)NC(=O)c1nccc(OC)c1OC(C)=O [Cmpd 1080] | B (≤ 80) | B (≤ 80) | A (> 80) | B (≤ 80)
C=CC[C@@H](Oc1ccc(F)cc1F)[C@H](C)OC(=O)[C@H](C)NC(=O)c1nccc(OC)c1OC(C)=O [Cmpd 1081] | D | D | A (> 80) | B (≤ 80)
C=CC[C@@H](OCC(=C)C)[C@H](C)OC(=O)[C@H](C)NC(=O)c1nccc(OC)c1OCOC(C)=O [Cmpd 1082] | D | D | B (≤ 80) | A (> 80)
C=CC[C@@H](Oc1cccc(Cl)c1)[C@H](C)OC(=O)[C@H](C)NC(=O)c1nccc(OC)c1OCOC(C)=O [Cmpd 1083] | B (≤ 80) | A (> 80) | A (> 80) | A (> 80)
C=CC[C@@H](Oc1ccc(C(F)(F)F)cc1)[C@H](C)OC(=O)[C@H](C)NC(=O)c1nccc(OC)c1OC(C)=O [Cmpd 1084] | B (≤ 80) | B (≤ 80) | B (≤ 80) | D
C=CC[C@@H](OCC1CC1)[C@H](C)OC(=O)[C@H](C)NC(=O)c1nccc(OC)c1OC(C)=O [Cmpd 1085] | D | D | D | B (≤ 80)
CC(=O)OCOc1c(Br)ccnc1C(=O)N[C@@H](C)C(=O)O[C@@H](C)[C@H](Oc1ccccc1)C(C)C [Cmpd 1086] | D | D | B (≤ 80) | D
COc1ccnc(C(=O)NC(C)C(=O)OC(C(C)C)C(Oc2ccccc2)C(C)C)c1OCOC(C)=O (stereo not shown) [Cmpd 1088] | D | D | B (≤ 80) | D
COCC(OC(=O)C(C)NC(=O)c1nccc(OC)c1OCOC(C)=O)C(Oc1ccccc1)C(C)C (stereo not shown) [Cmpd 1090] | D | D | D | B (≤ 80)
C=CC(OC(=O)C(C)NC(=O)c1nccc(OC)c1OCOC(C)=O)C(Oc1ccccc1)C(C)C (stereo not shown) [Cmpd 1092] | D | D | B (≤ 80) | B (≤ 80)
CCCC(OC(=O)C(C)NC(=O)c1nccc(OC)c1OCOC(C)=O)C(Oc1ccccc1)C(C)C (stereo not shown) [Cmpd 1093] | D | D | D | D
COc1ccnc(C(=O)NC(C)C(=O)OC(C(C)C)C(Oc2ccccc2)C(C)C)c1OCOC(C)=O (stereo not shown) [Cmpd 1094] | D | D | D | D
COCC(OC(=O)C(C)NC(=O)c1nccc(OC)c1OCOC(C)=O)C(Oc1ccccc1)C(C)C (stereo not shown) [Cmpd 1095] | D | D | B (≤ 80) | B (≤ 80)
CCCC(OC(=O)C(C)NC(=O)c1nccc(OC)c1OCOC(C)=O)C(Oc1ccccc1)C(C)C (stereo not shown) [Cmpd 1096] | D | B (≤ 80) | D | D
CCOc1ccnc(C(=O)NC(C)C(=O)OC(C)C(CC(C)C)Oc2ccc(C)cc2Cl)c1OC(C)=O (stereo not shown) [Cmpd 1098] | D | D | D | B (≤ 80)
COc1ccnc(C(=O)NC(C)C(=O)OC(C)C(CC(C)C)Oc2ccc3ccccc3c2)c1OC(C)=O (stereo not shown) [Cmpd 1099] | B (≤ 80) | D | A (> 80) | A (> 80)
COCCC(=O)Oc1c(OC)ccnc1C(=O)NC(C)C(=O)OC(C)C(CC(C)C)Oc1ccccc1 (stereo not shown) [Cmpd 1100] | A (> 80) | A (> 80) | A (> 80) | A (> 80)
CCOc1ccnc(C(=O)N[C@@H](C)C(=O)O[C@@H](C)[C@@H](CC(C)C)Oc2cccc(F)c2)c1OC(C)=O [Cmpd 1107] | D | D | B (≤ 80) | B (≤ 80)

Source: patent US20180000085A1, “USE OF PICOLINAMIDE COMPOUNDS WITH FUNGICIDAL ACTIVITY” (DOW AGROSCIENCES LLC, priority 2014, published 2018)
